pIC50: −log10 of the molar value.
molecular target: T1, Dimer of Gag-Pol polyprotein [489-587] (Human immunodeficiency virus 1, UniProt P12497); experiment: Protease Inhibition Assay; settings: not given
T1 construct: 489-587
Procedure: For determination of IC50 values, HIV-1 protease was added to assay buffer containing inhibitor and the substrate (H-His-Lys-Ala-Arg-Val-Leu- (p-NO2) Phe-Glu-Ala-norleucine-Ser-NH2). The Leu- (p-NO2) Phe bond of the substrate was cleaved by the enzyme, and the substrate and products were separated by reversed-phase HPLC. Absorbance was measured at 220 nm, peak areas were determined, and percentage conversion to product was calculated.

SMILES	pIC50
O=C1CC(COc2ccccc2)(c2ccccc2)OC(=O)C1SCc1ccccc1 (stereo unspecified) [5,6-Dihydro-4-hydroxy-6-phenoxymethyl-6-phenyl-3-[(phenylmethyl)thio]-2H-pyran-2-one]	6.76
CN(CC1(c2ccccc2)CC(=O)C(SCCc2ccccc2)C(=O)O1)c1ccccc1 (stereo unspecified) [5,6-Dihydro-4-hydroxy-6-[(methylphenylamino)methyl]-6-phenyl-3-[(2-phenylethyl)thio]-2H-pyran-2-one]	5.64
Cc1ccccc1SC1C(=O)CC(c2ccccc2)(c2ccccc2)OC1=O (stereo unspecified) [4-hydroxy-3-[(2-methylphenyl)sulfanyl]-6,6-diphenyl-5,6-dihydro-2H-pyran-2-one]	6.41
Cc1ccc(C(C)C)c(SC2C(=O)C[C@](CCc3ccccc3)(c3ccccc3)OC2=O)c1 (stereo partly drawn) [(6R)-4-hydroxy-3-{[5-methyl-2-(propan-2-yl)phenyl]sulfanyl}-6-phenyl-6-(2-phenylethyl)-5,6-dihydro-2H-pyran-2-one]	6.89
O=C1CC2(CCCc3ccccc32)OC(=O)C1SCc1ccccc1 (stereo unspecified) [3,4-Dihydro-4-hydroxy-5-[(phenylmethyl)thio]spiro[naphthalene-1(2H),2-[2H]pyran]-6 (3 H)-one]	5.64
O=C1CC(CCCCO)(c2ccccc2)OC(=O)C1SCc1ccccc1 (stereo unspecified) [3-(benzylsulfanyl)-4-hydroxy-6-(4-hydroxybutyl)-6-phenyl-5,6-dihydro-2H-pyran-2-one]	5.90
O=C1CC(c2ccccc2)(c2ccncc2)OC(=O)C1SCCc1ccccc1 (stereo unspecified) [5,6-Dihydro-4-hydroxy-6-phenyl-3-[(2-phenylethyl)thio]-6-pyridin-4-yl-2H-pyran-2-one]	6.10
CCC(C)c1ccccc1SC1C(=O)CC(c2ccccc2)(c2ccccc2)OC1=O (stereo unspecified) [3-[(2-sec-Butylphenyl)sulfanyl]-5,6-dihydro-4-hydroxy-6,6-diphenyl-2H-pyran-2-one]	7.77
CCC(C)c1ccccc1SC1C(=O)CC(CCc2ccccc2)(c2ccccc2)OC1=O (stereo unspecified) [3-{[2-(butan-2-yl)phenyl]sulfanyl}-4-hydroxy-6-phenyl-6-(2-phenylethyl)-5,6-dihydro-2H-pyran-2-one]	8.00
O=C1CC(CCc2ccccc2)(c2ccccc2)OC(=O)C1Sc1ccccc1C1CCCCC1 (stereo unspecified) [3-[(2-cyclohexylphenyl)sulfanyl]-4-hydroxy-6-phenyl-6-(2-phenylethyl)-5,6-dihydro-2H-pyran-2-one]	7.49

same assay, conditions: pH 4.7; 37 °C

SMILES	pIC50
CCCCC1(c2ccccc2)CC(=O)C(SCCc2ccccc2)C(=O)O1 (stereo unspecified) [6-Butyl-5,6-dihydro-4-hydroxy-6-phenyl-3-[(2-phenylethyl)thio]-2H-pyran-2-one]	6.40
NC(=O)CCCC1(c2ccccc2)CC(=O)C(SCCc2ccccc2)C(=O)O1 (stereo unspecified) [4-(3,6-Dihydro-4-hydroxy-6-oxo-2-phenyl-5-[(phenylethyl)thio]-2H-pyran-2-yl)butyramide]	5.89
O=C(O)CCC1(c2ccccc2)CC(=O)C(SCCc2ccccc2)C(=O)O1 (stereo unspecified) [3-(3,6-Dihydro-4-hydroxy-6-oxo-2-phenyl-5-[(2-phenylethyl)thio]-2H-pyran-2-yl)propanoic Acid]	5.92
CCCCC1(c2ccccc2)CC(=O)C(SCc2ccccc2)C(=O)O1 (stereo unspecified) [3-(benzylsulfanyl)-6-butyl-4-hydroxy-6-phenyl-5,6-dihydro-2H-pyran-2-one]	6.57
O=C1CC(c2ccccc2)(c2ccccc2)OC(=O)C1Sc1ccccc1 (stereo unspecified) [5,6-Dihydro-4-hydroxy-6,6-diphenyl-3-(phenylthio)-2H-pyran-2-one]	6.96
O=C1CC(CCc2ccccc2)(c2ccccc2)OC(=O)C1SCCc1ccccc1 (stereo unspecified) [5,6-Dihydro-4-hydroxy-6-phenyl-6-(2-phenylethyl)-3-[(2-phenylethyl)thio]-2H-pyran-2-one]	7.29

— BindingDB's records for doi:10.1021/jm970615f (Parke-Davis Pharmaceutical Research, 1997)
